Values quoted from earlier work, collected in PMC2217462 (The Journal of General Physiology, 2004).

How the values were obtained:
[1] = test system: Kv2.1 channel, basic substitutions at E277; details: substitution of basic residues at E277 of Kv2.1; ref Li-Smerin and Swartz, 2000
[2] = test system: Kv2.1 channel, mutations at F274; details: mutations at F274 of Kv2.1; ref Li-Smerin and Swartz, 2000

For hanatoxin, the “fold increase in hanatoxin Kd” value [1] is listed as no more than 125 fold and the “fold increase in hanatoxin Kd” value [2] is listed as no more than 500 fold.
